# Target: human σ1 receptor (Homo sapiens, UniProt Q99720)
# Assay: Human σ1 receptor radioligand assay ([3H](+)-pentazocine, transfected HEK-293 membranes)
# Format: binding
# Design: μ and σ1 dual binding: key to the marks not given beside the values
# Conditions: one class symbol for both Ki-σ1 (human σ1 receptor, A1) and Ki-μ (human μ-opioid receptor, A2)
# Procedure, shortened: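 Membranes from HEK-293 cells transfected with human σ1 receptor (7 μg) incubated with 5 nM [3H](+)-pentazocine in 50 mM Tris-HCl pH 8, 120 min at 37° C. Non-specific binding defined with 10 μM haloperidol. Bound radioligand separated by filtration, washed with ice-cold 10 mM Tris-HCl pH 7.4, and counted by scintillation.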
# human σ1 receptor, sequence (Q99720 whole entry): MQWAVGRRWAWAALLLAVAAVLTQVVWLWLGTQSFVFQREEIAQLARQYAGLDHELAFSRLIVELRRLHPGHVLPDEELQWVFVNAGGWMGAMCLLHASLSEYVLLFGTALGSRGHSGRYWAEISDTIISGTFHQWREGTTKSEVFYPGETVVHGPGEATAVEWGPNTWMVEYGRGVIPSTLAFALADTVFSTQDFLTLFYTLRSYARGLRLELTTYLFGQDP
row,Compound,μ and σ1 dual binding
1,"CC(C)CCN1CCN(C2(C(=O)c3ccccn3)CCOCC2)CC1 [Example 177, (4-(4-isopentylpiperazin-1-yl)tetrahydro-2H-pyran-4-yl)(pyridin-2-yl)methanone]",++
2,"CCC1(N2CCN(Cc3ccc(F)cc3)CC2)CCOCC1 [Example 175, 1-(4-ethyltetrahydro-2H-pyran-4-yl)-4-(4-fluorobenzyl)piperazine]",++
3,"CC(C)OCCN1CCN([C@]2(C(=O)c3ccccn3)CCOC2)CC1 [Example 242, (R)-(3-(4-(2-isopropoxyethyl)piperazin-1-yl)tetrahydrofuran-3-yl)(pyridin-2-yl)methanone]",++
4,CC(C)OCCN1CCN([C@@]2(C(=O)c3ccccn3)CCO[C@H](C)C2)CC1 [Example 95],++
5,"CCC1(N2CCN(Cc3ccccc3)CC2)CCOCC1 [Example 31, 1-benzyl-4-(4-ethyltetrahydro-2H-pyran-4yl)piperazine]",++
6,"CC1(C)CC(C)(N2CCN(CCc3ccccc3)CC2)CCO1 (centres unmarked) [Example 53, 1-phenethyl-4-(2,2,4-trimethyltetrahydro-2H-pyran-4-yl)piperazine]",++
7,"CC1(C)CC(C)(N2CCN(Cc3ccccc3)CC2)CCO1 (centres unmarked) [Example 36, 1-benzyl-4-(2,2,4-trimethyltetrahydro-2H-pyran-4-yl)piperazine]",++
8,"CC[C@@]1(N2CCN(CCc3ccccc3)CC2)CCO[C@@H](C)C1 (stereo in doubt) [Example 47, 1-(4-ethyl-2-methyltetrahydro-2H-pyran-4-yl)-4-phenethylpiperazine]",++

# Same assay, conditions: one class symbol for both Ki-σ1 (human σ1 receptor, A1) and Ki-μ (human μ-opioid receptor, A2); read-out: μ and σ1 dual binding
row,Compound,Ki [nM]
1,"C[C@H]1C[C@@](C(=O)c2ccccn2)(N2CCN(CCc3ccccc3)CC2)CCO1 [Example 241, ((2S,4S)-2-methyl-4-(4-phenethylpiperazin-1-yl)tetrahydro-2H-pyran-4-yl)(pyridin-2-yl)methanone]",< 500
2,"CCOCCN1CCN(C2(C(=O)c3ccccn3)CCOC(C)(C)C2)CC1 (centres unmarked) [Example 67, (4-(4-(2-ethoxyethyl)piperazin-1-yl)-2,2-dimethyltetrahydro-2H-pyran-4-yl)(pyridin-2-yl)methanone]",> 500

# Same assay, conditions: μ and σ1 dual binding, one class symbol for both Ki-σ1 (human σ1 receptor, A1) and Ki-μ (human μ-opioid receptor, A2)
row,Compound,Ki [nM]
1,"CC1(C)CC(C(=O)c2ccccn2)(C2CCN(Cc3cccc(F)c3)CC2)CCO1 (centres unmarked) [Example 108, (4-(1-(3-fluorobenzyl)piperidin-4-yl)-2,2-dimethyltetrahydro-2H-pyran-4-yl)(pyridin-2-yl)methanone]",< 500

# Source: patent US10807970B2 (priority 2016, dated 2020)
